Test results taken from US20220031684A1, “PROPHYLACTIC EFFICACY OF SEROTONIN 4 RECEPTOR AGONISTS AGAINST STRESS” (THE TRUSTEES OF COLUMBIA UNIVERSITY IN THE CITY OF NEW YORK, priority 2019, published 2022).

How the values were obtained:
129S6/SvEv mice [1] = test: Elevated plus maze (EPM) after CFC; type: in vivo
Experimental: (§1) This chronic CORT elevation dysregulates the hypothalamic-pituitary-adrenal axis (HPA) in a manner similar to that observed in clinical depression. The dose and duration of CORT treatment was selected based on previous studies. CORT (35 μg/ml, equivalent to about 5 mg/kg/day) dissolved in 0.45% hydroxypropyl-o-cyclodextrin (0-CD) or vehicle (VEH) (0.45% j-CD) was available ad libitum in the drinking water in opaque bottles to protect it from light. VEH- and CORT-treated water was changed every 3 days to prevent possible degradation. Contextual Fear Conditioning (CFC): A 3-shock CFC procedure was administered as previously published. Briefly, mice were placed into context A and administered 3 2-s shocks (0.75 mA) at 180 s, 240 s or 300 s following placement into context A. Mice were removed from the context 15 s following the termination of shock (at 317 s). For context retrieval, mice were placed back into context A for 300 s. Electrophysiology: Electrophysiology was conducted as previously described. Statistical Analysis: Results from data analyses are expressed as means±SEM. Alpha was set to 0.05 for all analyses. Data were analyzed using GraphPad Prism v7.0 or v8.0. For all experiments, unless otherwise noted, one- or two-way ANOVAs with repeated-measures were applied to the data as appropriate. Significant main effects and/or interactions were followed by Fisher's PLSD post hoc analysis or unpaired t-tests. Drugs: All drugs were prepared in physiological saline and all injections were administered intraperitoneally (i.p.) in volumes of 0.1 cc per […] body weight unless otherwise noted. Fluoxetine hydrochloride (Flx): Flx (BioTrend Chemicals AG, BG197, Zurich, Germany) was administered in the drinking water (18 mg/kg/day) for 3 weeks before the start of CORT. […] (R,S)-ketamine (K): (R,S)-ketamine (Ketaset III, Ketamine HCl injection, Fort Dodge Animal Health, Fort Dodge, Iowa) was administered in a single dose at 30 mg/kg of body weight 1 week before the start of CFC. […] PF-04995274: PF-04995274 (Sigma, Catalog No. 1331782-27-4, St. Louis, Mo.) was administered a single dose at 3 or 10 mg/kg of body weight 1 week before the start of CFC. PF-04995274 was dissolved in saline using an ultrasonic homogenizer (BioLogics, Model 3000, Manassas, Va.). Osmotic minipump implantation: ALZET osmotic minipumps (Model 2004, […], 28 days) were implanted subcutaneously under isoflurane anesthesia as previously described [S2]. Osmotic minipumps were rotated under the skin two to three times per week. Behavioral Assays: All experiments were approved by the Institutional Animal Care and Use Committee (IACUC) at the New York Psychiatric Institute (NYSPI). Elevated Plus Maze (EPM): Testing was performed as previously described [S3]. Briefly, the maze is a plus-cross-shaped apparatus consisting of four arms, two open and two enclosed by walls, linked by a central platform at a height of 50 cm from the floor. Mice were individually placed in the center of the maze facing an open arm and were allowed to explore the maze for 5 min. The time spent in and the number of entries into the open arms was used as an anxiety index. Videos were scored using ANY-maze behavior tracking software (Stoelting, Wood Dale, Ill.). Novelty-Suppressed Feeding: The NSF is a conflict test that elicits competing motivations: the drive to eat and the fear of venturing into the center of a brightly lit arena. The latency to feed is used as an index of anxiety-like behavior, because classical anxiolytic drugs decrease this measure. The NSF test was carried out during an 8 min period as previously described [S3]. Briefly, the testing apparatus consisted of a plastic box (50×50×20 cm), the floor of which was covered with approximately 2 cm of bedding. For 129S6/SvEv experiments, mice were food restricted for 12 h. For the C57BL/6N experiments, mice were food restricted for 24 h. […]

129S6/SvEv mice [2] = test: Forced swim test (FST) after CFC; type: in vivo
Experimental: as §1

sigma 2 = sigma 2 (Homo sapiens, UniProt Q5BJF2); settings: cited from earlier work
C57BL/6NTac mice = test: Sucrose splash test (ST) in CORT model; type: in vivo; settings: male C57BL/6NTac; Flx 18 mg/kg/day or RS-67,333 1.5 mg/kg/day for 3 weeks prior to CORT
Experimental: (§2) This chronic CORT elevation dysregulates the hypothalamic-pituitary-adrenal axis (HPA) in a manner similar to that observed in clinical depression. The dose and duration of CORT treatment was selected based on previous studies. CORT (35 μg/ml, equivalent to about 5 mg/kg/day) dissolved in 0.45% hydroxypropyl-o-cyclodextrin (0-CD) or vehicle (VEH) (0.45% j-CD) was available ad libitum in the drinking water in opaque bottles to protect it from light. VEH- and CORT-treated water was changed every 3 days to prevent possible degradation. Contextual Fear Conditioning (CFC): A 3-shock CFC procedure was administered as previously published. Briefly, mice were placed into context A and administered 3 2-s shocks (0.75 mA) at 180 s, 240 s or 300 s following placement into context A. Mice were removed from the context 15 s following the termination of shock (at 317 s). For context retrieval, mice were placed back into context A for 300 s. Electrophysiology: Electrophysiology was conducted as previously described. Statistical Analysis: Results from data analyses are expressed as means±SEM. Alpha was set to 0.05 for all analyses. Data were analyzed using GraphPad Prism v7.0 or v8.0. For all experiments, unless otherwise noted, one- or two-way ANOVAs with repeated-measures were applied to the data as appropriate. […] Videos were scored using ANY-maze behavior tracking software (Stoelting, Wood Dale, Ill.). […]

129S6/SvEv mice [3] = test: Open field (OF) after CFC; type: in vivo
Experimental: as §2, with “appropriate. Significant main effects and/or interactions were followed by Fisher's PLSD post hoc analysis or unpaired t-tests. Drugs: All drugs were prepared in physiological saline and all injections were administered intraperitoneally (i.p.) in volumes of 0.1 cc per […] body weight unless otherwise noted. Fluoxetine hydrochloride (Flx): Flx (BioTrend Chemicals AG, BG197, Zurich, Germany) was administered in the drinking water (18 mg/kg/day) for 3 weeks before the start of CORT. […] (R,S)-ketamine (K): (R,S)-ketamine (Ketaset III, Ketamine HCl injection, Fort Dodge Animal Health, Fort Dodge, Iowa) was administered in a single dose at 30 mg/kg of body weight 1 week before the start of CFC.” for “appropriate.”

129S6/SvEv mice [4] = test: 3-shock contextual fear conditioning (CFC); type: in vivo; settings: FIG. 2D
Experimental: as §1

[5] = female 129S6/SvEv, 1.5 or 10 mg/kg
[6] = FIG. 3 cohort, FIG. 3G, Fisher's PLSD

sigma 2, sequence (Q5BJF2 whole entry): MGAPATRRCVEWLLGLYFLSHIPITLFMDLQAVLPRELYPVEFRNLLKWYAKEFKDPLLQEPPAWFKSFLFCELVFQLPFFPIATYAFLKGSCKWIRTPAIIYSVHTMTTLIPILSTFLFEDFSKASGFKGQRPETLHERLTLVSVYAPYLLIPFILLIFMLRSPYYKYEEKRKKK

## CCCCN1CCC(CCC(=O)c2cc(Cl)c(N)cc2OC)CC1.Cl [RS-67,333, 1-(4-amino-5-chloro-2-methoxyphenyl)-3-[1(n-butyl)-4-piperidinyl]-1-propanone HCl]
129S6/SvEv mice [1]; FIG. 2J, t-test
  p, EPM Time in Open, Saline vs. RS67333 (10 mg/kg): 0.2069
129S6/SvEv mice [1]; FIG. 2K, t-test
  p, EPM Entries into Open, Saline vs. RS67333 (10 mg/kg): 0.3584
129S6/SvEv mice [1]; [5]
  entries into the open arms of the EPM: comparable
  time spent in the open arms of the EPM: comparable
129S6/SvEv mice [1]; male 129S6/SvEv, 10 mg/kg
  entries into the open arms of the EPM vs saline: neither in the open arms nor entries into the open arms of the maze was significantly different
  time in the open arms of the EPM vs saline: neither in the open arms nor entries into the open arms of the maze was significantly different
129S6/SvEv mice [2]; FIG. 2E, Fisher's LSD
  p, FST Day 1 Immobility Time (sec), RS67333 (1.5 mg/kg) vs. RS67333 (10 mg/kg): 0.3430
  p, FST Day 1 Immobility Time (sec), RS67333 (1.5 mg/kg) vs. RS67333 (30 mg/kg): 0.5994
  p, FST Day 1 Immobility Time (sec), RS67333 (10 mg/kg) vs. RS67333 (30 mg/kg): 0.1099
  p, FST Day 1 Immobility Time (sec), Saline vs. RS67333 (1.5 mg/kg): 0.3784
  p, FST Day 1 Immobility Time (sec), Saline vs. RS67333 (10 mg/kg): 0.0028
  p, FST Day 1 Immobility Time (sec), Saline vs. RS67333 (30 mg/kg): 0.8437
129S6/SvEv mice [2]; [6]
  p, FST Day 2 Immobility Time (min 3-6) (sec), RS67333 (1.5 mg/kg) vs. RS67333 (10 mg/kg): 0.0235
  p, FST Day 2 Immobility Time (min 3-6) (sec), Saline vs. RS67333 (1.5 mg/kg): 0.4916
  p, FST Day 2 Immobility Time (min 3-6) (sec), Saline vs. RS67333 (10 mg/kg): 0.1991
129S6/SvEv mice [2]; female 129S6/SvEv, 1.5 or 10 mg/kg vs saline
  immobility, FST days 1 and 2: comparable levels of immobility
129S6/SvEv mice [2]; male 129S6/SvEv, RS-67,333 1.5, 10 or 30 mg/kg vs saline
  immobility time, FST Day 2: comparable
129S6/SvEv mice [2]; male 129S6/SvEv, single injection 1 week before CFC, 10 mg/kg
  immobility, FST Day 1 vs saline: significantly less immobile
Sigma 2
  pKi sigma 2: 8.0
C57BL/6NTac mice
  grooming duration (ST) vs CORT+Veh: increased grooming duration
129S6/SvEv mice [3]; FIG. 2I, t-test
  p, OF Time in Center, Saline vs. RS67333 (10 mg/kg): 0.2475
129S6/SvEv mice [3]; [5]
  time spent in the center of the OF: did not alter
129S6/SvEv mice [3]; male 129S6/SvEv, 10 mg/kg
  time in the center of the OF arena vs saline: comparable amount of time
129S6/SvEv mice [4]; RS67333 (1.5 mg/kg) vs. (second group beyond the rows shown)
  p value, CFC Re-exposure Average Freezing (%), Fisher's LSD: 0.3259
129S6/SvEv mice [4]; RS67333 (1.5 mg/kg) vs. RS67333 (10 mg/kg)
  p value, CFC Re-exposure Average Freezing (%), Fisher's LSD: 0.8278
129S6/SvEv mice [4]; Saline vs. RS67333 (1.5 mg/kg)
  p value, CFC Re-exposure Average Freezing (%), Fisher's LSD: 0.0185
129S6/SvEv mice [4]; Saline vs. RS67333 (10 mg/kg)
  p value, CFC Re-exposure Average Freezing (%), Fisher's LSD: 0.0006
129S6/SvEv mice [4]; Saline vs. RS67333 (30 mg/kg)
  p value, CFC Re-exposure Average Freezing (%), Fisher's LSD: 0.2625
